The text below walks through data of patent publication US11440880B2, “Thalidomide analogs and methods of use” (The USA, as represented by the Secretary, Department of …, priority 2015, dated 2022).

The subject of one series is TNF-α protein. Description: TNF-α protein level (ELISA) in LPS-challenged RAW 264.7 cells. The class given is cell-based, mouse. Details: key: NS=not significant; a “+” sign=anti-inflammatory or increased cell numbers; a “−” sign=cell toxicity or pro-inflammatory. To be noted: LPS 30 or 60 ng/mL, 24 h. A digest of the protocol:
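RAW 264.7 cells pretreated 1 h with compound in DMSO vehicle, then challenged with LPS (30 or 60 ng/mL) for 24 h at 37° C. Conditioned-media nitrite by Griess (520 nm, sodium nitrite standard curve, 1.5 μM cutoff) in μM; mouse TNF-α by ELISA as pg/ml or % change from control.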
On the technique in general: ELISA stands for enzyme-linked immunosorbent assay.

Series [1] has as its system fli1:EGFP zebrafish embryos (intersegmental vessel growth). The series can be described thus: fli1:EGFP zebrafish embryo angiogenesis assay. To be noted: for minimal effective concentration: Danio rerio, lowest concentration producing an effect, compounds not producing an effect shown at the highest evaluated concentration; for fli1:EGFP angiogenesis n (survived/tested): embryos alive after 24 hours of exposure. Type of series: in vivo. Details: fli1:EGFP angiogenesis n (survived/tested): concentration or dose not given beside the values. A digest of the protocol: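 fli1:EGFP embryos grown 24 hpf, dechorionated and exposed to compound or vehicle over a range of concentrations for up to 24 h, with CPS49 as positive control. Imaged at 48 hpf for intersegmental vessel formation and growth; survival after 24 h exposure recorded, and values reflect the lowest concentration producing an effect.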

`O=C1CCC(N2C(=O)c3cccc([N+](=O)[O-])c3C2=O)C(=O)N1` (stereo not shown) [Compound 5]: the TNF-α entry with TNF-α protein (1 μM), in the series on TNF-α protein (10 μM), in the series with TNF-α protein (30 μM), with TNF-α protein (60 μM) and with TNF-α protein (100 μM) was “NS” throughout. Also, the minimal effective concentration (in general, the smallest amount tested that counted as effective) in series [1] was found to be 7.5 µg/mL. Also, the “fli1:EGFP angiogenesis n (survived/tested)” value in series [1] is listed as 8/14.
As to `O=C1NC(=S)CCC1N1C(=O)c2cccc([N+](=O)[O-])c2C1=O` (stereo not shown) [Compound 7, 2-(2-Oxo-6-thioxo-3-piperidinyl)-4-nitro-1H-isoindole-1,3(2H)-dione], the TNF-α result in the series on TNF-α protein (1 μM) is listed as “NS”; in the series on TNF-α protein (10 μM), “NS”; in the series on TNF-α protein (30 μM), “NS”; with TNF-α protein (60 μM) it was “NS”; with TNF-α protein (100 μM), “+”. The same compound yielded a minimal effective concentration in series [1] of 10 µg/mL. Also, the “fli1:EGFP angiogenesis n (survived/tested)” value in series [1] is 28/33.
Regarding `Nc1cccc2c1CN(C1CCC(=O)NC1=O)C2=S` (stereo not shown) [Compound 29], the TNF-α entry in the series on TNF-α protein (3 μM), in the series with TNF-α protein (10 μM) and in the series with TNF-α protein (30 μM) was “NS” in each case. This compound also showed a minimal effective concentration in series [1] of 10 µg/mL. Besides, the “fli1:EGFP angiogenesis n (survived/tested)” value in series [1] was 6/17.
Regarding `Nc1cccc2c1CN(C13CC4CC(CC(C4)C1)C3)C2=O` [Compound 77, 2,3-Dihydro-4-amino-2-(tricyclo[3.3.1.1^3,7]dec-1-yl)-1H-isoindol-1-one], the TNF-α result with TNF-α protein (1 μM), in the series with TNF-α protein (10 μM) and in the series with TNF-α protein (30 μM) was “NS” throughout. Further, in series [1], the minimal effective concentration is 10 µg/mL. The “fli1:EGFP angiogenesis n (survived/tested)” value in series [1] is reported as 43/62.
Consider `CC(N1Cc2c(N)cccc2C1=O)C12CC3CC(CC(C3)C1)C2` (stereo not shown) [Compound 81], for which the TNF-α result in the series with TNF-α protein (1 μM) is reported as “NS”; in the series with TNF-α protein (10 μM), “NS”; in the series with TNF-α protein (30 μM) it was “+”. The minimal effective concentration in series [1] amounted to 50 µg/mL. Further, the “fli1:EGFP angiogenesis n (survived/tested)” value in series [1] is 7/8.
Take `O=C1c2ccccc2CN1C12CC3CC(CC(O)(C3)C1)C2` [Compound 86, 2,3-Dihydro-2-(tricyclo[3.3.1.1^3,7]dec-1-hydroxy-3-yl)-1H-isoindol-1-one]: the TNF-α entry in the series with TNF-α protein (1 μM) is listed as “NS”; in the series on TNF-α protein (10 μM), “+”; in the series with TNF-α protein (30 μM), “+”. In series [1], the minimal effective concentration turned out to be 200 µg/mL. Moreover, the “fli1:EGFP angiogenesis n (survived/tested)” value in series [1] is recorded as 4/12.
